Laboratory results from ChEMBL document CHEMBL1201862, “PubChem BioAssay data set” (2004).
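Results reflect a 48-hour exposure of cells in 96-well plates to compound at five concentrations. GI50: concentration for 50% inhibition of growth.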 The source made the active and inactive calls. Rule as the data show it: active = GI50 up to about 1.1 µM and inactive = higher. Peptide text beside a SMILES is read from it. * marks the point of attachment. OSu = O=C1CCC(=O)N1O*

What was measured:
Assay in all cases: inhibition of tumour cell growth, NCI panel, 48 h
MOLT-4 = system: MOLT-4
MDA-N = system: MDA-N
SF-539 = system: SF-539
Malme-3M = system: Malme-3M
RXF 393 = system: RXF 393
786-0 = system: 786-0
NCI-H226 = system: NCI-H226
SK-MEL-5 = system: SK-MEL-5
A549 = system: A549
BT-549 = system: BT-549
T47D = system: T47D
SNB-19 = system: SNB-19
NCI-H23 = system: NCI-H23
SK-MEL-2 = system: SK-MEL-2
HOP-92 = system: HOP-92
HCC 2998 = system: HCC 2998
CAKI-1 = system: CAKI-1
SK-MEL-28 = system: SK-MEL-28
HCT-116 = system: HCT-116
OVCAR-3 = system: OVCAR-3

SMILES	GI50 (MOLT-4)	GI50 (MDA-N)	GI50 (SF-539)	GI50 (Malme-3M)	GI50 (RXF 393)	GI50 (786-0)	GI50 (NCI-H226)	GI50 (SK-MEL-5)	GI50 (A549)	GI50 (BT-549)	GI50 (T47D)	GI50 (SNB-19)	GI50 (NCI-H23)	GI50 (SK-MEL-2)	GI50 (HOP-92)	GI50 (HCC 2998)	GI50 (CAKI-1)	GI50 (SK-MEL-28)	GI50 (HCT-116)	GI50 (OVCAR-3)
COc1cccc2c1C(=N)c1c(O)c3c(c(O)c1C2=O)C[C@@](O)(C(C)=O)C[C@@H]3OC1CC(N)C(O)C(C)O1 (stereo partly drawn)	0.000132 µM (active)	< 0.01 µM (active)	0.00789 µM (active)	0.000721 µM (active)	1.23 µM (inactive)	0.171 µM (active)	0.137 µM (active)	0.196 µM (active)	0.00832 µM (active)	< 0.01 µM (active)	0.0047 µM (active)	0.00811 µM (active)	0.00875 µM (active)	1.48 µM (inactive)	0.655 µM (active)	0.409 µM (active)	0.141 µM (active)	2.3 µM (inactive)	0.00745 µM (active)	–
CNNC1=NS(=O)(=O)c2cc(C#N)c(Cl)cc2S1	> 10 µM (inactive)	> 10 µM (inactive)	> 10 µM (inactive)	> 10 µM (inactive)	> 10 µM (inactive)	> 10 µM (inactive)	> 10 µM (inactive)	> 10 µM (inactive)	> 10 µM (inactive)	> 10 µM (inactive)	> 10 µM (inactive)	> 10 µM (inactive)	> 10 µM (inactive)	> 10 µM (inactive)	–	> 10 µM (inactive)	> 10 µM (inactive)	> 10 µM (inactive)	> 10 µM (inactive)	> 10 µM (inactive)
CN(C)C(=O)C(NCCO)c1ccccc1 (stereo not drawn)	22.4 µM (inactive)	> 100 µM (inactive)	> 100 µM (inactive)	–	> 100 µM (inactive)	> 100 µM (inactive)	> 100 µM (inactive)	52.8 µM (inactive)	> 100 µM (inactive)	> 100 µM (inactive)	53.3 µM (inactive)	> 100 µM (inactive)	83 µM (inactive)	> 100 µM (inactive)	> 100 µM (inactive)	> 100 µM (inactive)	> 100 µM (inactive)	> 100 µM (inactive)	53.7 µM (inactive)	62.1 µM (inactive)
COc1cc(C2c3cc4c(cc3OC(N3CCOCC3)C2C)OCO4)ccc1O (stereo not drawn)	6.25 µM (inactive)	1.76 µM (inactive)	11.3 µM (inactive)	10.9 µM (inactive)	11.5 µM (inactive)	18.4 µM (inactive)	–	9.53 µM (inactive)	13.4 µM (inactive)	10.3 µM (inactive)	10.3 µM (inactive)	24.4 µM (inactive)	28.6 µM (inactive)	6.24 µM (inactive)	2.84 µM (inactive)	14.9 µM (inactive)	31.2 µM (inactive)	34.1 µM (inactive)	8.34 µM (inactive)	7.62 µM (inactive)
CCOP(=O)(OCC)/C(C#N)=C/c1c(C)[nH]c2ccccc12	> 100 µM (inactive)	> 100 µM (inactive)	> 100 µM (inactive)	> 100 µM (inactive)	> 100 µM (inactive)	> 100 µM (inactive)	> 100 µM (inactive)	> 100 µM (inactive)	> 100 µM (inactive)	> 100 µM (inactive)	> 100 µM (inactive)	> 100 µM (inactive)	> 100 µM (inactive)	–	> 100 µM (inactive)	> 100 µM (inactive)	> 100 µM (inactive)	> 100 µM (inactive)	> 100 µM (inactive)	> 100 µM (inactive)
CC(C)(C)c1cc(C2NC(=O)NC2=O)cc(C(C)(C)C)c1O (stereo not drawn)	39.5 µM (inactive)	47 µM (inactive)	> 100 µM (inactive)	80 µM (inactive)	33.3 µM (inactive)	> 10 µM (inactive)	> 100 µM (inactive)	> 10 µM (inactive)	96.8 µM (inactive)	> 100 µM (inactive)	46 µM (inactive)	> 100 µM (inactive)	56.8 µM (inactive)	> 100 µM (inactive)	38.1 µM (inactive)	–	> 100 µM (inactive)	31.7 µM (inactive)	27.9 µM (inactive)	34.1 µM (inactive)
O=C(N/N=C\c1c(O)ccc2ccccc12)c1ccncc1	0.0313 µM (active)	1.33 µM (inactive)	0.675 µM (active)	–	0.383 µM (active)	0.2 µM (active)	0.628 µM (active)	0.341 µM (active)	0.789 µM (active)	0.927 µM (active)	2.49 µM (inactive)	1.21 µM (inactive)	1.53 µM (inactive)	0.257 µM (active)	1.31 µM (inactive)	> 11.4 µM (inactive)	1 µM (active)	0.649 µM (active)	0.191 µM (active)	1.22 µM (inactive)
CCN(C(C)=O)c1cnc(/C=N/NC(N)=S)c2ccccc12	1.96 µM (inactive)	7.01 µM (inactive)	2.93 µM (inactive)	11.4 µM (inactive)	17.9 µM (inactive)	1.61 µM (inactive)	3.44 µM (inactive)	2.84 µM (inactive)	4.01 µM (inactive)	5 µM (inactive)	5.69 µM (inactive)	3.49 µM (inactive)	3.36 µM (inactive)	–	> 40.4 µM (inactive)	11 µM (inactive)	3.3 µM (inactive)	–	2.67 µM (inactive)	2.58 µM (inactive)
CC1=C(C(=O)OCc2ccncc2)C(C2=C(C)SCCS2)C(C(=O)OCc2ccncc2)=C(C)N1	15.3 µM (inactive)	30.5 µM (inactive)	16.4 µM (inactive)	–	12 µM (inactive)	28.6 µM (inactive)	18.5 µM (inactive)	15.3 µM (inactive)	33.3 µM (inactive)	20.4 µM (inactive)	16.1 µM (inactive)	29.1 µM (inactive)	24.2 µM (inactive)	–	12.3 µM (inactive)	> 10 µM (inactive)	26.3 µM (inactive)	16.8 µM (inactive)	15.1 µM (inactive)	19.3 µM (inactive)
N#Cc1c(N)nc(-c2ccc(Cl)cc2)c2c1-c1ccccc1S(=O)(=O)CC2	–	> 100 µM (inactive)	–	> 100 µM (inactive)	–	27.2 µM (inactive)	> 100 µM (inactive)	> 100 µM (inactive)	> 100 µM (inactive)	27.5 µM (inactive)	> 100 µM (inactive)	29.1 µM (inactive)	66.2 µM (inactive)	> 100 µM (inactive)	> 100 µM (inactive)	> 100 µM (inactive)	> 100 µM (inactive)	> 100 µM (inactive)	> 100 µM (inactive)	> 100 µM (inactive)
Cc1cn(C2CCC(CO)(CF)O2)c(=O)[nH]c1=O (stereo not drawn)	> 100 µM (inactive)	> 100 µM (inactive)	> 100 µM (inactive)	–	> 100 µM (inactive)	> 100 µM (inactive)	> 100 µM (inactive)	> 100 µM (inactive)	> 100 µM (inactive)	> 100 µM (inactive)	> 100 µM (inactive)	> 100 µM (inactive)	> 100 µM (inactive)	> 100 µM (inactive)	> 100 µM (inactive)	> 100 µM (inactive)	> 100 µM (inactive)	> 100 µM (inactive)	> 100 µM (inactive)	> 100 µM (inactive)
N#Cc1ccc(OCc2ccc3nc(-c4ccccc4)c(Cl)nc3c2)cc1	> 100 µM (inactive)	> 100 µM (inactive)	> 100 µM (inactive)	> 100 µM (inactive)	–	54 µM (inactive)	–	> 100 µM (inactive)	> 100 µM (inactive)	> 100 µM (inactive)	> 100 µM (inactive)	> 100 µM (inactive)	> 100 µM (inactive)	> 100 µM (inactive)	> 100 µM (inactive)	> 100 µM (inactive)	> 100 µM (inactive)	> 100 µM (inactive)	> 100 µM (inactive)	> 100 µM (inactive)
COc1ccc(S(=O)(=O)N2C(=O)CCC2C(=O)NN)cc1 (stereo not drawn)	> 100 µM (inactive)	> 100 µM (inactive)	> 100 µM (inactive)	> 100 µM (inactive)	–	> 100 µM (inactive)	> 100 µM (inactive)	> 100 µM (inactive)	> 100 µM (inactive)	> 100 µM (inactive)	> 100 µM (inactive)	> 100 µM (inactive)	> 100 µM (inactive)	> 100 µM (inactive)	> 100 µM (inactive)	> 100 µM (inactive)	> 100 µM (inactive)	> 100 µM (inactive)	> 100 µM (inactive)	> 100 µM (inactive)
COc1ccc2c(c1)CCN1CCc3ccccc3CC21 (stereo not drawn)	35 µM (inactive)	27.4 µM (inactive)	36.6 µM (inactive)	43.1 µM (inactive)	–	31.3 µM (inactive)	29 µM (inactive)	15.1 µM (inactive)	49.7 µM (inactive)	34 µM (inactive)	43.7 µM (inactive)	32.9 µM (inactive)	39 µM (inactive)	57.3 µM (inactive)	20.5 µM (inactive)	21.2 µM (inactive)	47.2 µM (inactive)	27.6 µM (inactive)	20.4 µM (inactive)	72.4 µM (inactive)
NCCCCC(NC(=O)C(N)Cc1ccc(O)cc1)C(=O)NC(CCCCN)C(=O)NC(CCCCN)C(=O)ON1C(=O)CCC1=O (stereo not drawn) (H-YKKK-OSu; configuration not given here)	> 100 µM (inactive)	> 100 µM (inactive)	–	> 100 µM (inactive)	> 100 µM (inactive)	> 100 µM (inactive)	> 100 µM (inactive)	> 100 µM (inactive)	> 100 µM (inactive)	> 100 µM (inactive)	49.5 µM (inactive)	> 100 µM (inactive)	> 100 µM (inactive)	> 100 µM (inactive)	> 100 µM (inactive)	> 100 µM (inactive)	–	> 100 µM (inactive)	> 100 µM (inactive)	–
